Assay results reported in paper PMC11791039, “A split intein and split luciferase-coupled system for detecting protein-protein interactions” (Molecular Systems Biology, 2024).
Values joined by “and” are separate entries in the source; they are usually repeats but may differ in a detail not shown here. Identical values can stand only once.

Key:
Format in all cases: cell-based
EGFR(WT)/SHC1 = target: T1, EGFR(WT)/SHC1 (Homo sapiens, UniProt P00533); test: SIMPL2 assay EGFR(WT)/SHC1; conditions: for normalized SIMPL2 signal EGFR/SHC1 (Fig. 3A source data): 16 h, replicates 1-3
T1 construct: β10-IN (tNLuc β10 peptide + GP41-1 split intein N fragment) (C); V5; expressed in transfected cells
T1 sequence (P00533 25-1210): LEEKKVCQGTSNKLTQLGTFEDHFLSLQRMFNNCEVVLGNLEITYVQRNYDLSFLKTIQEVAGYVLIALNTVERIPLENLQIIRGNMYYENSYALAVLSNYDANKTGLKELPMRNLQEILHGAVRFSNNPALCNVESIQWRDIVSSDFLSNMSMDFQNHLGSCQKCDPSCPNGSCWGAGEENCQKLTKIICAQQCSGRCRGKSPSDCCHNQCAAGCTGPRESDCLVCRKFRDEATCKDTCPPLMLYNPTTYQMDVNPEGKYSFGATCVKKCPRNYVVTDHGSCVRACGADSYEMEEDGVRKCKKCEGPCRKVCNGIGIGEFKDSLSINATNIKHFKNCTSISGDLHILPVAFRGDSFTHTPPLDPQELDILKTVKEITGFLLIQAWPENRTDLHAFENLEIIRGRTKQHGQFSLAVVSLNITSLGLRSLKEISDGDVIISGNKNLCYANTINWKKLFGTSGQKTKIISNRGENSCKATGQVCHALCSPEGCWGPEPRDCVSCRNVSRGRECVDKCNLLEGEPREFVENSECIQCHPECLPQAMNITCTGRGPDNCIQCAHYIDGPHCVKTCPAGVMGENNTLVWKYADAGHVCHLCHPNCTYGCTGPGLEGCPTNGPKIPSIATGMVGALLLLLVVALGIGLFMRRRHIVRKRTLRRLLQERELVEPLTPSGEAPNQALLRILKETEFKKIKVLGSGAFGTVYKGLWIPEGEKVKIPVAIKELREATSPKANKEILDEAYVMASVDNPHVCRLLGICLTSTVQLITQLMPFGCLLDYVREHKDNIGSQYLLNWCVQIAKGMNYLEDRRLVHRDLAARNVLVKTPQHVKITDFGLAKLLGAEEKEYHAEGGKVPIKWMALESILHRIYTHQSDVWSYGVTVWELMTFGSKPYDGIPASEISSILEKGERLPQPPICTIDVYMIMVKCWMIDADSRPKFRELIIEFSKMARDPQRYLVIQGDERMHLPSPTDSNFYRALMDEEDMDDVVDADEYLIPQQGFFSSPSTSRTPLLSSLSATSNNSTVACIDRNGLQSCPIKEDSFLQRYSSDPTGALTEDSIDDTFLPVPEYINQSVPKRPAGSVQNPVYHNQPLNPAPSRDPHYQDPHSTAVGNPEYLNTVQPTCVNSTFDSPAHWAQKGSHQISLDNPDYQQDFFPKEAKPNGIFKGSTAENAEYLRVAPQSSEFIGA

HRAS/RBD = target: T2, HRAS/RBD (Homo sapiens, UniProt P01112); test: SIMPL2 assay HRAS/RBD; conditions: 16 h; for normalized SIMPL2 signal HRAS/RBD (Fig. 3A source data): replicates 1-3
T2 construct: IC-β9 (GP41-1 split intein C fragment + tNLuc β9 peptide) (N); FLAG; expressed in transfected cells
T2 sequence (P01112 whole entry, the tested form may be a part): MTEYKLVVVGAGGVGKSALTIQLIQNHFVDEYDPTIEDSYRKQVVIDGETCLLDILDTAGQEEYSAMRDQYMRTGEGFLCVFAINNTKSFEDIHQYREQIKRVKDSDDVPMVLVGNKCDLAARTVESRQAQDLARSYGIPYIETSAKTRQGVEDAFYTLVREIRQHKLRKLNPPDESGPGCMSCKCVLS

KRAS(G12C)/RBD = target: T3, KRAS(G12C)/RBD (Homo sapiens, UniProt P01116, G12C); test: SIMPL2 assay KRAS(G12C)/RBD; conditions: for SIMPL2 signal, KRAS(G12C)/RBD (Fig. 4A): replicates 1-4
T3 construct: IC-β9 (GP41-1 split intein C fragment + tNLuc β9 peptide) (N); FLAG; expressed in transfected cells

MDM2/MDM4 interaction = target: T4, MDM2/MDM4 interaction (Homo sapiens, UniProt O15151+Q00987); test: SIMPL2 assay MDM2/MDM4; conditions: for SIMPL2 signal, MDM2/MDM4 (Fig. 4A): replicates 1-4
T4 construct: β10-IN (tNLuc β10 peptide + GP41-1 split intein N fragment) (C); V5; IC-β9 (GP41-1 split intein C fragment + tNLuc β9 peptide) (N); FLAG; expressed in transfected cells
T4 sequence (Q00987 whole entry, the tested form may be a part): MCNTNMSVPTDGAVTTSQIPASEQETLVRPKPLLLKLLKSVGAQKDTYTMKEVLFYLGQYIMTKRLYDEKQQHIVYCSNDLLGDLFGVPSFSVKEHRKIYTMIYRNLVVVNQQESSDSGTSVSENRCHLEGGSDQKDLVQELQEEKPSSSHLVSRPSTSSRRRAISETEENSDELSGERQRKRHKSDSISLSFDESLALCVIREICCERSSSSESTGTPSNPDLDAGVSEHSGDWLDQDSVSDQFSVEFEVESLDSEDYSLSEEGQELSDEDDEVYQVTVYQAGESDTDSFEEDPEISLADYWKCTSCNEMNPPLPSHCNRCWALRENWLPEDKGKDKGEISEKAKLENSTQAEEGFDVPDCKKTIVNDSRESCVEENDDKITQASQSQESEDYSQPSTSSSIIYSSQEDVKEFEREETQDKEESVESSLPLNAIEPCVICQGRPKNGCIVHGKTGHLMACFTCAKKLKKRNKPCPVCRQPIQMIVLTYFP
T4 sequence (O15151 whole entry, the tested form may be a part): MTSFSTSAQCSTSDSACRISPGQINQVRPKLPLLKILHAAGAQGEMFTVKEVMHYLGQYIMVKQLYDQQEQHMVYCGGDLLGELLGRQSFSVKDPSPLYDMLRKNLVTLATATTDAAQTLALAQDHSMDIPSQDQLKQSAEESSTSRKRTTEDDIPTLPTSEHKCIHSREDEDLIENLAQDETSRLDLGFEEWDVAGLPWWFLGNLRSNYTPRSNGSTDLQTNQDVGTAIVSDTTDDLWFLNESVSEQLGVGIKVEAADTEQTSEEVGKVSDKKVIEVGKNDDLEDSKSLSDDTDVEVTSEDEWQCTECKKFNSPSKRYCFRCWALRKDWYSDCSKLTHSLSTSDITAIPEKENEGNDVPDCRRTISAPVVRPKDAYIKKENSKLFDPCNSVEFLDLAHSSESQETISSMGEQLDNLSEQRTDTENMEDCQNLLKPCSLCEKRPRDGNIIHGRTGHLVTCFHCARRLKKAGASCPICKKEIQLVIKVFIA
Experimental: We next tested the system with molecular glues, which are small molecule compounds that induce target protein interaction. […] To clarify, the two protein molecules are anchored together through a pair of dimerized RO-5963 molecules. […] Therefore, its binding kinetics display a monophasic change.
Figure 4 Evaluation of SIMPL2 as a drug discovery tool using molecular glue and PROTACs. […] Samples were measured and normalized as described in Materials and Methods. […] The cells were then subjected to SIMPL2 luciferase measurement, and the raw values are plotted.
Stable cells of target protein pair were created using Cas9 CRISPR. To characterize PPI modulators, the cells were seeded in 384 well plate (10,000 cells/well) and incubated for 5 h. […] Average signal of wells without either deoxycycline or compound treatment was used as blank or ‘floor’ signal (SF). The average signal of wells with deoxycycline treatment but without compound treatment was used as maximal interaction or ‘ceiling’ (SC). SIMPL2 reading of each sample (Ssample) was normalized according to the formula S^*sample = (Ssample– SF)/(SC– SF) x 100%, in which S^*sample stands for normalized signal. The normalized data of inhibitor experiments were fitted into a four-parameter inhibitor-response model.

Compound: C=CC(=O)N1CCN(c2nc(=O)n(-c3c(C)ccnc3C(C)C)c3nc(-c4c(O)cccc4F)c(F)cc23)[C@@H](C)C1 [sotorasib, Sotorasib]
- normalized SIMPL2 signal EGFR/SHC1 (Fig. 3A source data) (EGFR(WT)/SHC1; AMG510 0.013717 uM): 102.175% and 103.017% and 94.8079%
- normalized SIMPL2 signal EGFR/SHC1 (Fig. 3A source data) (EGFR(WT)/SHC1; AMG510 0.041152 uM): 78.9251% and 82.2027% and 70.7463%
- normalized SIMPL2 signal EGFR/SHC1 (Fig. 3A source data) (EGFR(WT)/SHC1; AMG510 0.37037 uM): 78.0061% and 80.6558% and 79.5224%
- normalized SIMPL2 signal EGFR/SHC1 (Fig. 3A source data) (EGFR(WT)/SHC1; AMG510 1.11111 uM): 94.2258% and 88.5129% and 91.668%
- normalized SIMPL2 signal EGFR/SHC1 (Fig. 3A source data) (EGFR(WT)/SHC1; AMG510 3.33333 uM): 78.7566% and 76.4592% and 70.5625%
- normalized SIMPL2 signal EGFR/SHC1 (Fig. 3A source data) (EGFR(WT)/SHC1; AMG510 10 uM): 53.0256% and 58.9069% and 63.3333%
- inhibition of EGFR/SHC1 signal at high sotorasib concentrations (reviewer's reading of Fig. 3A) (EGFR(WT)/SHC1; peer review file, authors confirm for EGFR/SHC1 only): 40-50%
- normalized SIMPL2 signal HRAS/RBD (Fig. 3A source data) (HRAS/RBD; AMG510 0.013717 uM): 95.6644% and 96.1454% and 108.19%
- normalized SIMPL2 signal HRAS/RBD (Fig. 3A source data) (HRAS/RBD; AMG510 0.041152 uM): 82.7154% and 124.68% and 97.6847%
- normalized SIMPL2 signal HRAS/RBD (Fig. 3A source data) (HRAS/RBD; AMG510 0.37037 uM): 80.291% and 76.1158% and 82.6769%
- normalized SIMPL2 signal HRAS/RBD (Fig. 3A source data) (HRAS/RBD; AMG510 1.11111 uM): 79.0981% and 97.1459% and 96.2801%
- normalized SIMPL2 signal HRAS/RBD (Fig. 3A source data) (HRAS/RBD; AMG510 3.33333 uM): 91.6238% and 112.808% and 96.8766%
- normalized SIMPL2 signal HRAS/RBD (Fig. 3A source data) (HRAS/RBD; AMG510 10 uM): 106.247% and 100.629% and 127.854%
- inhibition of HRAS/RBD interaction signal (HRAS/RBD; control cells): no significant inhibition

Compound: RO-5963
- SIMPL2 signal, KRAS(G12C)/RBD (Fig. 4A) (KRAS(G12C)/RBD; RO-5963 0.013717 uM): 109.968 and 129.491
- SIMPL2 signal, KRAS(G12C)/RBD (Fig. 4A) (KRAS(G12C)/RBD; RO-5963 0.041152 uM): 115.427 and 110.7 and 113.906 and 96.9775
- SIMPL2 signal, KRAS(G12C)/RBD (Fig. 4A) (KRAS(G12C)/RBD; RO-5963 0.37037 uM): 127.273 and 113.795 and 114.951
- SIMPL2 signal, KRAS(G12C)/RBD (Fig. 4A) (KRAS(G12C)/RBD; RO-5963 1.11111 uM): 136.524 and 105.719 and 127.623 and 137.333
- SIMPL2 signal, KRAS(G12C)/RBD (Fig. 4A) (KRAS(G12C)/RBD; RO-5963 3.33333 uM): 110.236 and 106.312 and 130.946
- SIMPL2 signal, KRAS(G12C)/RBD (Fig. 4A) (KRAS(G12C)/RBD; RO-5963 10 uM): 136.758 and 112.554 and 138.094 and 146.423
- effect on KRAS(G12C)/RBD control interaction signal (KRAS(G12C)/RBD; doxycycline + compound 16 h, tested concentration range): not affected
- concentration above which MDM2/MDM4 interaction declines (hook effect) (MDM2/MDM4 interaction; 16 h with doxycycline): above 3 μM
- concentration above which MDM2/MDM4 interaction was observed (MDM2/MDM4 interaction; 16 h with doxycycline): above 0.3 μM
- concentration of peak MDM2/MDM4 interaction (MDM2/MDM4 interaction; 16 h with doxycycline): 3 µM
- SIMPL2 signal, MDM2/MDM4 (Fig. 4A) (MDM2/MDM4 interaction; RO-5963 0.013717 uM): 98.5373 and 90.6113 and 85.0033 and 102.575
- SIMPL2 signal, MDM2/MDM4 (Fig. 4A) (MDM2/MDM4 interaction; RO-5963 0.041152 uM): 93.004 and 86.0501 and 89.041 and 96.2193
- SIMPL2 signal, MDM2/MDM4 (Fig. 4A) (MDM2/MDM4 interaction; RO-5963 0.37037 uM): 155.514 and 142.28 and 150.579 and 141.083
- SIMPL2 signal, MDM2/MDM4 (Fig. 4A) (MDM2/MDM4 interaction; RO-5963 1.11111 uM): 502.238 and 458.421 and 548.523 and 430.606
- SIMPL2 signal, MDM2/MDM4 (Fig. 4A) (MDM2/MDM4 interaction; RO-5963 3.33333 uM): 934.354 and 877.9 and 842.009 and 825.259
- SIMPL2 signal, MDM2/MDM4 (Fig. 4A) (MDM2/MDM4 interaction; RO-5963 10 uM): 374.451 and 365.777 and 368.394 and 378.937
